Eight cell lines from the supplement of paper PMC10307832 can be followed below.

Holding throughout (experiment): relative viability (nuclei count vs DMSO), 5 days (fraction); higher = more cells survive
Compound in the assay “RO-3306 + Vorinostat”: C1=CC2=C(C=CC(=C2)C=C3C(=O)NC(=NCC4=CC=CS4)S3)N=C1 [RO-3306] + O=C(CCCCCCC(=O)Nc1ccccc1)NO [Vorinostat] (partner 1 µM)
Summed up: (§1)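 Dosing by pin tool came one day after lung cancer cell lines were seeded in 1536-well plates, using either one drug or a fixed anchor-drug dose plus five library-drug doses (not always all listed) in √10 steps. After 5 days, nuclei were counted on 4× images. Relative viability is treated-well nuclei count divided by vehicle-well nuclei count, and values are medians of duplicate plates.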

Compound in assay [1]: O=S(=O)(c1ccccc1)N(CC(F)(F)F)c1ccc(C(O)(C(F)(F)F)C(F)(F)F)cc1 + CC1(C)CCC(c2ccc(Cl)cc2)=C(CN2CCN(c3ccc(C(=O)NS(=O)(=O)c4ccc(N[C@H](CCN5CCOCC5)CSc5ccccc5)c(S(=O)(=O)C(F)(F)F)c4)cc3)CC2)C1 [Navitoclax] (partner 0.5 µM)
Summed up: as §1

Compound in the assay “RO-3306 + Alpelisib”: C1=CC2=C(C=CC(=C2)C=C3C(=O)NC(=NCC4=CC=CS4)S3)N=C1 [RO-3306] + Cc1nc(NC(=O)N2CCC[C@H]2C(N)=O)sc1-c1ccnc(C(C)(C)C(F)(F)F)c1 [Alpelisib] (partner 2 µM)
Summed up: as §1

Compound in the assay “RO-3306 + Crizotinib”: C1=CC2=C(C=CC(=C2)C=C3C(=O)NC(=NCC4=CC=CS4)S3)N=C1 [RO-3306] + C[C@@H](Oc1cc(-c2cnn(C3CCNCC3)c2)cnc1N)c1c(Cl)ccc(F)c1Cl [Crizotinib] (partner 1 µM)
In short, it runs like this: as §1

With NCI-H727, the relative viability in the assay with RO-3306 + Vorinostat (first compound 0.01 µM) turned out to be 1.08; with RO-3306 + Vorinostat (first compound 0.03162 µM), 1.25; with RO-3306 + Vorinostat (first compound 0.1 µM) it was 1.02; with RO-3306 + Vorinostat (first compound 0.3162 µM) it was 1.3; with RO-3306 + Vorinostat (first compound 1 µM), 1.06; in assay [1] (first compound 0.8 µM), 0.387. The relative viability in assay [1] (first compound 2.53 µM) is 0.407; in assay [1] (first compound 8 µM), 0.507; in the assay with RO-3306 + Alpelisib (first compound 0.01 µM), 0.622; with RO-3306 + Alpelisib (first compound 0.03162 µM), 0.531; with RO-3306 + Alpelisib (first compound 0.1 µM) it was 0.517; with RO-3306 + Alpelisib (first compound 0.3162 µM), 0.716. Besides, the relative viability with RO-3306 + Alpelisib (first compound 1 µM) came to 0.786; with RO-3306 + Crizotinib (first compound 0.01 µM) it was 1.33; in the assay with RO-3306 + Crizotinib (first compound 0.03162 µM), 0.781; with RO-3306 + Crizotinib (first compound 0.1 µM), 0.837; with RO-3306 + Crizotinib (first compound 0.3162 µM) it was 1; in the assay with RO-3306 + Crizotinib (first compound 1 µM), 0.964.
For the cell line NCI-H838, the relative viability was found to be 0.726 with RO-3306 + Vorinostat (first compound 0.01 µM); 0.694 with RO-3306 + Vorinostat (first compound 0.03162 µM); 0.722 with RO-3306 + Vorinostat (first compound 0.1 µM); 0.738 in the assay with RO-3306 + Vorinostat (first compound 0.3162 µM); 0.674 with RO-3306 + Vorinostat (first compound 1 µM); 1.3 in assay [1] (first compound 0.8 µM). Besides, the relative viability in assay [1] (first compound 2.53 µM) came to 1.25; in assay [1] (first compound 8 µM) it was 1.09; with RO-3306 + Alpelisib (first compound 0.01 µM), 0.992; in the assay with RO-3306 + Alpelisib (first compound 0.03162 µM), 0.972; with RO-3306 + Alpelisib (first compound 0.1 µM), 1.01; in the assay with RO-3306 + Alpelisib (first compound 0.3162 µM) it was 1.04. In addition, the relative viability was found to be 0.999 with RO-3306 + Alpelisib (first compound 1 µM); 0.957 with RO-3306 + Crizotinib (first compound 0.01 µM); 0.765 with RO-3306 + Crizotinib (first compound 0.03162 µM); 0.837 in the assay with RO-3306 + Crizotinib (first compound 0.1 µM); 0.93 with RO-3306 + Crizotinib (first compound 0.3162 µM); 0.607 in the assay with RO-3306 + Crizotinib (first compound 1 µM).
Consider NCI-H1355, for which the relative viability was 0.694 with RO-3306 + Vorinostat (first compound 0.01 µM); 0.538 with RO-3306 + Vorinostat (first compound 0.03162 µM); 0.644 with RO-3306 + Vorinostat (first compound 0.1 µM); 0.6 with RO-3306 + Vorinostat (first compound 0.3162 µM); 0.591 in the assay with RO-3306 + Vorinostat (first compound 1 µM); 1.09 in assay [1] (first compound 0.8 µM). For the same cell line, the relative viability in assay [1] (first compound 2.53 µM) was found to be 0.754; in assay [1] (first compound 8 µM), 0.826; with RO-3306 + Alpelisib (first compound 0.01 µM), 1; with RO-3306 + Alpelisib (first compound 0.03162 µM) it was 0.709; in the assay with RO-3306 + Alpelisib (first compound 0.1 µM), 0.872; with RO-3306 + Alpelisib (first compound 0.3162 µM) it was 0.969. Further, the relative viability with RO-3306 + Alpelisib (first compound 1 µM) was determined as 0.822; in the assay with RO-3306 + Crizotinib (first compound 0.01 µM), 1.21; with RO-3306 + Crizotinib (first compound 0.03162 µM) it was 0.947; with RO-3306 + Crizotinib (first compound 0.1 µM), 1.1; in the assay with RO-3306 + Crizotinib (first compound 0.3162 µM), 1.12; with RO-3306 + Crizotinib (first compound 1 µM), 1.14.
With NCI-H1437, the relative viability with RO-3306 + Vorinostat (first compound 0.01 µM) amounted to 0.848; with RO-3306 + Vorinostat (first compound 0.03162 µM) it was 0.782; with RO-3306 + Vorinostat (first compound 0.1 µM) it was 0.807; with RO-3306 + Vorinostat (first compound 0.3162 µM) it was 0.751; with RO-3306 + Vorinostat (first compound 1 µM) it was 0.688; in assay [1] (first compound 0.8 µM) it was 1.04. For the same cell line, the relative viability in assay [1] (first compound 2.53 µM) is 0.859; in assay [1] (first compound 8 µM), 0.893; with RO-3306 + Alpelisib (first compound 0.01 µM) it was 1.05; in the assay with RO-3306 + Alpelisib (first compound 0.03162 µM), 0.868; with RO-3306 + Alpelisib (first compound 0.1 µM), 0.999; with RO-3306 + Alpelisib (first compound 0.3162 µM), 1. For the same cell line, the relative viability stood at 0.929 in the assay with RO-3306 + Alpelisib (first compound 1 µM); 1.13 in the assay with RO-3306 + Crizotinib (first compound 0.01 µM); 0.682 with RO-3306 + Crizotinib (first compound 0.03162 µM); 0.988 with RO-3306 + Crizotinib (first compound 0.1 µM); 1.01 with RO-3306 + Crizotinib (first compound 0.3162 µM); 1.03 with RO-3306 + Crizotinib (first compound 1 µM).
As to NCI-H1651, the relative viability in the assay with RO-3306 + Vorinostat (first compound 0.01 µM) was found to be 0.559; with RO-3306 + Vorinostat (first compound 0.03162 µM) it was 0.535; with RO-3306 + Vorinostat (first compound 0.1 µM) it was 0.529; in the assay with RO-3306 + Vorinostat (first compound 0.3162 µM), 0.544; with RO-3306 + Vorinostat (first compound 1 µM), 0.511; in assay [1] (first compound 0.8 µM), 1.15. Also, the relative viability is 0.939 in assay [1] (first compound 2.53 µM); 1.02 in assay [1] (first compound 8 µM); 1.07 with RO-3306 + Alpelisib (first compound 0.01 µM); 0.927 with RO-3306 + Alpelisib (first compound 0.03162 µM); 0.913 in the assay with RO-3306 + Alpelisib (first compound 0.1 µM); 0.867 with RO-3306 + Alpelisib (first compound 0.3162 µM). The relative viability with RO-3306 + Alpelisib (first compound 1 µM) came out at 0.987; with RO-3306 + Crizotinib (first compound 0.01 µM), 0.865; in the assay with RO-3306 + Crizotinib (first compound 0.03162 µM) it was 0.834; with RO-3306 + Crizotinib (first compound 0.1 µM), 0.88; in the assay with RO-3306 + Crizotinib (first compound 0.3162 µM) it was 0.881; with RO-3306 + Crizotinib (first compound 1 µM), 0.84.
Turning to NCI-H1666, the relative viability was 0.803 with RO-3306 + Vorinostat (first compound 0.01 µM); 0.952 with RO-3306 + Vorinostat (first compound 0.03162 µM); 1.04 with RO-3306 + Vorinostat (first compound 0.1 µM); 1.05 with RO-3306 + Vorinostat (first compound 0.3162 µM); 0.972 in the assay with RO-3306 + Vorinostat (first compound 1 µM); 0.756 in assay [1] (first compound 0.8 µM). Moreover, the relative viability stood at 0.882 in assay [1] (first compound 2.53 µM); 0.99 in assay [1] (first compound 8 µM); 1.02 with RO-3306 + Alpelisib (first compound 0.01 µM); 0.743 with RO-3306 + Alpelisib (first compound 0.03162 µM); 0.891 in the assay with RO-3306 + Alpelisib (first compound 0.1 µM); 0.973 in the assay with RO-3306 + Alpelisib (first compound 0.3162 µM). Further, the relative viability in the assay with RO-3306 + Alpelisib (first compound 1 µM) came to 0.802; with RO-3306 + Crizotinib (first compound 0.01 µM) it was 1.04; with RO-3306 + Crizotinib (first compound 0.03162 µM) it was 0.869; with RO-3306 + Crizotinib (first compound 0.1 µM) it was 0.915; with RO-3306 + Crizotinib (first compound 0.3162 µM) it was 0.839; with RO-3306 + Crizotinib (first compound 1 µM), 0.89.
On to NCI-H1734, for which the relative viability with RO-3306 + Vorinostat (first compound 0.01 µM) turned out to be 0.802; with RO-3306 + Vorinostat (first compound 0.03162 µM), 0.631; with RO-3306 + Vorinostat (first compound 0.1 µM), 0.733; in the assay with RO-3306 + Vorinostat (first compound 0.3162 µM), 0.828; with RO-3306 + Vorinostat (first compound 1 µM) it was 0.734; in assay [1] (first compound 0.8 µM), 1.14. Further, the relative viability turned out to be 0.809 in assay [1] (first compound 2.53 µM); 0.801 in assay [1] (first compound 8 µM); 0.687 in the assay with RO-3306 + Alpelisib (first compound 0.01 µM); 0.595 with RO-3306 + Alpelisib (first compound 0.03162 µM); 0.697 with RO-3306 + Alpelisib (first compound 0.1 µM); 0.726 with RO-3306 + Alpelisib (first compound 0.3162 µM). For the same cell line, the relative viability stood at 0.719 with RO-3306 + Alpelisib (first compound 1 µM); 0.714 with RO-3306 + Crizotinib (first compound 0.01 µM); 0.656 with RO-3306 + Crizotinib (first compound 0.03162 µM); 0.694 with RO-3306 + Crizotinib (first compound 0.1 µM); 0.624 in the assay with RO-3306 + Crizotinib (first compound 0.3162 µM); 0.623 with RO-3306 + Crizotinib (first compound 1 µM).
Turning to NCI-H1755, the relative viability in the assay with RO-3306 + Vorinostat (first compound 0.01 µM) stood at 0.881; with RO-3306 + Vorinostat (first compound 0.03162 µM), 0.856; in the assay with RO-3306 + Vorinostat (first compound 0.1 µM), 0.771; in the assay with RO-3306 + Vorinostat (first compound 0.3162 µM), 0.745; in the assay with RO-3306 + Vorinostat (first compound 1 µM), 0.706; in assay [1] (first compound 0.8 µM), 1.01. In addition, the relative viability came to 0.909 in assay [1] (first compound 2.53 µM); 0.924 in assay [1] (first compound 8 µM); 1.02 with RO-3306 + Alpelisib (first compound 0.01 µM); 0.772 in the assay with RO-3306 + Alpelisib (first compound 0.03162 µM); 0.958 with RO-3306 + Alpelisib (first compound 0.1 µM); 0.904 with RO-3306 + Alpelisib (first compound 0.3162 µM). The relative viability with RO-3306 + Alpelisib (first compound 1 µM) was determined as 0.859; with RO-3306 + Crizotinib (first compound 0.01 µM), 0.934; with RO-3306 + Crizotinib (first compound 0.03162 µM) it was 1.02; in the assay with RO-3306 + Crizotinib (first compound 0.1 µM) it was 0.875; in the assay with RO-3306 + Crizotinib (first compound 0.3162 µM), 0.846; with RO-3306 + Crizotinib (first compound 1 µM), 0.811.
